Data published in patent US20120258940A1, “METHOD FOR TREATING HAEMATOLOGICAL CANCERS” (priority 2009, published 2012).

What was measured:
Type in all cases: cell-based
[1] = tested on: multiple myeloma cell line KMS-11; experiment: Cell viability (CellTiter GLO), FGFR inhibitor + glucocorticoid combination, KMS-11; details: for CI of Cpd. + 100 nM Dex: 72 hours; for Synergy Score: Loewe Additivity model
Description: (§1) Cell viability was measured by CellTiter GLO. For the combination treatments in FIGS. 1 and 2, the Y axes were cell viability was normalized to the wells treated with dexamethasone alone.
(§2) All FGFR inhibitors were desolved in DMSO as a 10 mM stock. Serial dilutions, as indicated in each figure, were made as 3× solutions in culture medium before adding to the cell cultures. Dexamethasone and halometasone were dissolved in 100% ethanol as a 10 millimol master stock. Serial dilutions, as indicated in each figure, were made as 3× solutions in culture medium. Cell lines, cell culture and treatment:
(§3) KMS-11 and OPM-2 cell lines can be purchased from HSRRB (Japan) and DSMZ (Germany), respectively. Early passage KMS-11 and OPM-2 cell lines were cultured in RPMI-1640 (ATCC Catalog#30-2001) supplemented with 10% FBS for 1 or 2 passages before treatment. Twenty thousand cells were seeded in each well of a 96-well plate and grew for 24 hours. Cells were then treated in triplicate with vehicle, an FGFR inhibitor (Compound A, B), a glucocorticoid (Dexamethasone or halometasone) alone or a combination at indicated concentrations in 5% CO2 at 37 C for 72 hours. Viability was determined by CellTiter GLO (Promega, Cat#G755B) using identical method as described by the manufacturer. Data analysis:
(§4) Raw CellTiter GLO relative […] unit (RFU) values were acquired using a microplate reader (PerkinElmer Precisely, Perkin Elmer Life and Analytical Sciences). Data analysis was performed using the Chalice software developed by CombinatoRx (Zalicus Inc., Cambridge, Mass., USA). Specifically, the Loewe Additivity (ADD) model was used as the combination reference in the EXAMPLES.

[2] = tested on: multiple myeloma cell line OPM-2; experiment: Cell viability (CellTiter GLO), FGFR inhibitor + glucocorticoid combination, OPM-2; details: for CI of Cpd. + 100 nM Dex: 72 hours; for Synergy Score: Loewe Additivity model
Description: as §1, §2, §3, §4

[3] = tested on: multiple myeloma cell lines; experiment: Inhibition of proliferation of multiple myeloma cell lines by combinations (cell line not specified); details: with Dexamethasone
Description: as §2, §3
Raw CellTiter GLO relative […] unit (RFU) values were acquired using a microplate reader (PerkinElmer Precisely, Perkin Elmer Life and Analytical Sciences). Data analysis was performed using the Chalice software developed by CombinatoRx (Zalicus Inc., Cambridge, Mass., USA). […]

[4] = Cpd. 0.0001 nM + 100 nM dexamethasone
[5] = Cpd. 0.001 nM + 100 nM dexamethasone
[6] = Cpd. 0.01 nM + 100 nM dexamethasone
[7] = Cpd. 0.1 nM + 100 nM dexamethasone
[8] = Cpd. 1 nM + 100 nM dexamethasone
[9] = Cpd. 10 nM + 100 nM dexamethasone
[10] = Cpd. 100 nM + 100 nM dexamethasone
[11] = Cpd. 1000 nM + 100 nM dexamethasone
[12] = Cpd. 10000 nM + 100 nM dexamethasone
[13] = in combination with Dexamethasone

## CCN1CCN(c2ccc(Nc3cc(N(C)C(=O)Nc4c(Cl)c(OC)cc(OC)c4Cl)ncn3)cc2)CC1 [Compound A, 3-(2,6-dichloro-3,5-dimethoxy-phenyl)-1-{6-[4-(4-ethyl-perpazin-1-yl)-phenylamino]-pyrimidin-4-yl}-1-methyl urea]
[1]; [4]
  CI of Cpd. + 100 nM Dex: 6.10E−02
[1]; [5]
  CI of Cpd. + 100 nM Dex: 2.20E−02
[1]; [6]
  CI of Cpd. + 100 nM Dex: 9.00E−03
[1]; [7]
  CI of Cpd. + 100 nM Dex: 5.00E−03
[1]; [8]
  CI of Cpd. + 100 nM Dex: 1.00E−03
[1]; [9]
  CI of Cpd. + 100 nM Dex: 4.17E−05
[1]; [10]
  CI of Cpd. + 100 nM Dex: 1.25E−06
[1]; [11]
  CI of Cpd. + 100 nM Dex: 1.21E−06
[1]; [12]
  CI of Cpd. + 100 nM Dex: 1.43E−12
[1]; [13]
  Chemical 1 concentration in the combination at 50% growth inhibition: A (1.5) mM
  Combination Index (CI) at 50% inhibition: 0.077 ± 0.001
  Synergy call: Very strong
  Synergy Score: 35
[1]; in combination with Sicorten
  Chemical 1 concentration in the combination at 50% growth inhibition: A (4.2) mM
  Combination Index (CI) at 50% inhibition: 0.220 ± 0.006
  Synergy call: Strong
  Synergy Score: 10
[1]; with Sicorten
  Combination effect on cell viability (figure legend): synergistic effect
[1]; with dexamethasone
  Combination effect on cell viability (figure legend): synergistic effect
[2]; [4]
  CI of Cpd. + 100 nM Dex: 1.39E−01
[2]; [5]
  CI of Cpd. + 100 nM Dex: 5.00E−02
[2]; [6]
  CI of Cpd. + 100 nM Dex: 4.90E−02
[2]; [7]
  CI of Cpd. + 100 nM Dex: 1.50E−02
[2]; [8]
  CI of Cpd. + 100 nM Dex: 1.10E−02
[2]; [9]
  CI of Cpd. + 100 nM Dex: 3.00E−03
[2]; [10]
  CI of Cpd. + 100 nM Dex: 7.00E−03
[2]; [11]
  CI of Cpd. + 100 nM Dex: 5.90E−02
[2]; [12]
  CI of Cpd. + 100 nM Dex: 4.40E−02
[2]; [13]
  Chemical 1 concentration in the combination at 50% growth inhibition: A (0.03) mM
  Combination Index (CI) at 50% inhibition: 0.034 ± 0.003
  Synergy call: Very strong
  Synergy Score: 29
[2]; in combination with Sicorten
  Chemical 1 concentration in the combination at 50% growth inhibition: A (1.6) mM
  Combination Index (CI) at 50% inhibition: 0.282 ± 0.007
  Synergy call: Strong
  Synergy Score: 17
[2]; with Sicorten
  Combination effect on cell viability (figure legend): synergistic effect
[2]; with dexamethasone
  Combination effect on cell viability (figure legend): synergistic effect
[3]
  Reduction by Dexamethasone of the concentration required to achieve 50% of inhibition of proliferation: at least a million fold

## CN1CCN(c2ccc3nc(-c4c(N)c5c(F)cccc5[nH]c4=O)[nH]c3c2)CC1 [Compound B, 4-amino-5-fluoro-3-[6-(4-methylpiperazin-yl)-1H-benzimidazol-2-yl]quinolin-2(1H)-one]
[1]; [4]
  CI of Cpd. + 100 nM Dex: 2.71E−01
[1]; [5]
  CI of Cpd. + 100 nM Dex: 1.72E−01
[1]; [6]
  CI of Cpd. + 100 nM Dex: 1.73E−01
[1]; [7]
  CI of Cpd. + 100 nM Dex: 1.32E−01
[1]; [8]
  CI of Cpd. + 100 nM Dex: 1.23E−01
[1]; [9]
  CI of Cpd. + 100 nM Dex: 9.00E−03
[1]; [10]
  CI of Cpd. + 100 nM Dex: 1.00E−03
[1]; [11]
  CI of Cpd. + 100 nM Dex: 4.00E−03
[1]; [12]
  CI of Cpd. + 100 nM Dex: 3.00E−03
[1]; [13]
  Chemical 1 concentration in the combination at 50% growth inhibition: B (0.74) mM
  Combination Index (CI) at 50% inhibition: 0.050 ± 0.004
  Synergy call: Very strong
  Synergy Score: 18
[1]; in combination with Sicorten
  Chemical 1 concentration in the combination at 50% growth inhibition: B (0.45) mM
  Combination Index (CI) at 50% inhibition: 0.371 ± 0.003
  Synergy Score: 4
[1]; with Sicorten
  Combination effect on cell viability (figure legend): synergistic effect
[1]; with dexamethasone
  Combination effect on cell viability (figure legend): synergistic effect
[2]; [4]
  CI of Cpd. + 100 nM Dex: 1.64E+00
[2]; [5]
  CI of Cpd. + 100 nM Dex: 1.38E+00
[2]; [6]
  CI of Cpd. + 100 nM Dex: 1.17E+00
[2]; [7]
  CI of Cpd. + 100 nM Dex: 1.10E+00
[2]; [8]
  CI of Cpd. + 100 nM Dex: 1.00E+00
[2]; [9]
  CI of Cpd. + 100 nM Dex: 7.94E−01
[2]; [10]
  CI of Cpd. + 100 nM Dex: 1.86E−01
[2]; [11]
  CI of Cpd. + 100 nM Dex: 5.80E−02
[2]; [12]
  CI of Cpd. + 100 nM Dex: 1.00E−03
[2]; [13]
  Chemical 1 concentration in the combination at 50% growth inhibition: B (1.8) mM
  Combination Index (CI) at 50% inhibition: 0.350 ± 0.010
  Synergy Score: 10
[2]; in combination with Sicorten
  Chemical 1 concentration in the combination at 50% growth inhibition: B (10) mM
  Combination Index (CI) at 50% inhibition: 0.281 ± 0.005
  Synergy call: Strong
  Synergy Score: 14
[2]; with Sicorten
  Combination effect on cell viability (figure legend): synergistic effect
[2]; with dexamethasone
  Combination effect on cell viability (figure legend): synergistic effect

## CCN(CC)CCCCNc1ncc2cc(-c3cc(OC)cc(OC)c3)c(NC(=O)NC(C)(C)C)nc2n1 [Compound E, 1-tert-Butyl-3-[6-(3,5-dimethoxy-phenyl)-2-(4-diethylamino-butylamino)-pyrido[2,3-d]pyrimidin-7-yl]-urea, reference compound]
[1]; with dexamethasone
  Combination effect on cell viability (figure legend): synergistic effect
[2]; with dexamethasone
  Combination effect on cell viability (figure legend): synergistic effect

## C[C@@H]1C[C@H]2[C@@H]3CCC4=CC(=O)C=C[C@]4(C)[C@@]3(F)[C@@H](O)C[C@]2(C)[C@@]1(O)C(=O)CO [Dexamethasone, reference compound]
[1]; in combination with Compound A
  Chemical 2 concentration in the combination at 50% growth inhibition: (0.14) mM
[1]; in combination with Compound B
  Chemical 2 concentration in the combination at 50% growth inhibition: (0.32) mM
[2]; in combination with Compound A
  Chemical 2 concentration in the combination at 50% growth inhibition: (0.30) mM
[2]; in combination with Compound B
  Chemical 2 concentration in the combination at 50% growth inhibition: (0.30) mM

## C[C@@H]1C[C@H]2[C@@H]3C[C@H](F)C4=CC(=O)C(Cl)=C[C@]4(C)[C@@]3(F)[C@@H](O)C[C@]2(C)[C@@]1(O)C(=O)CO [Sicorten, halometasone, reference compound]
[1]; in combination with Compound A
  Chemical 2 concentration in the combination at 50% growth inhibition: Sicorten (0.01) mM
[1]; in combination with Compound B
  Chemical 2 concentration in the combination at 50% growth inhibition: Sicorten (0.02) mM
[2]; in combination with Compound A
  Chemical 2 concentration in the combination at 50% growth inhibition: Sicorten (0.03) mM
[2]; in combination with Compound B
  Chemical 2 concentration in the combination at 50% growth inhibition: Sicorten (0.02) mM
